In ChEMBL document CHEMBL4392887, “17- nor-Cephalotane-Type Diterpenoids from Cephalotaxus fortunei” (J Nat Prod, 2019):
Where a name gives a salt, the structure may show the parent alone. Active and inactive are the calls of the source. The rule behind the calls is not given here.

What was measured:
A549 [1] = test: Cytotoxicity in human A549 cells assessed as inhibition of cell viability at 50 uM incubated for 72 hrs by CCK-8 assay; assay type: functional; details: A549, 72 h
HL-60 [2] = test: Cytotoxicity in human HL60 cells assessed as inhibition of cell viability at 50 uM incubated for 72 hrs by CCK-8 assay; assay type: functional; details: HL-60, 72 h
A549 [3] = test: Cytotoxicity in human A549 cells assessed as inhibition of cell viability incubated for 72 hrs by CCK-8 assay; assay type: functional, cell-based; details: for IC50: A549, 72 h
HL-60 [4] = test: Cytotoxicity in human HL60 cells assessed as inhibition of cell viability incubated for 72 hrs by CCK-8 assay; assay type: functional, cell-based; details: for IC50: HL-60, 72 h

SMILES | inhibition at 50 µM (A549 [1]) [%] | inhibition at 50 µM (HL-60 [2]) [%] | IC50 (A549 [3]) [µM] | IC50 (HL-60 [4]) [µM] | further results
CC1=C[C@@H](O)[C@H](O)[C@@]2(O)CC[C@]34C(=O)O[C@@H]5C(O[C@H]6C1=C2[C@@H]3[C@@H]56)C4C (stereo not given in full) | < 50 | < 50 |  |  | 
CO[C@@]12c3c4cc(=O)cc(C)c3C[C@@H]1[C@H]1CC(C)[C@@]2(CC4)C(=O)O1 (stereo not given in full) |  |  |  |  | inhibition (A549 [3]): inactive; inhibition (HL-60 [4]): inactive
CC1C[C@H]2OC(=O)[C@]13CC[C@@H]1C[C@H](O)C[C@H](C)C4=C1[C@@H]3[C@@H]2C4=O (stereo not given in full) | < 50 | < 50 |  |  | 
CC1C[C@H]2OC(=O)[C@]13CC[C@@H]1C[C@@H](O)C[C@H](C)C4=C1[C@@H]3[C@@H]2C4=O (stereo not given in full) | < 50 | < 50 |  |  | 
Cc1cc(=O)cc2c3c1C[C@@H]1[C@H]4CC(C)[C@@](C=C2)(C(=O)O4)[C@]31O (stereo not given in full) |  |  | 5.7 | 10 to 20 | 
Cc1cc(=O)cc2c3c1[C@H](O)[C@@H]1[C@@H]4OC(=O)[C@](CC2)(C(C)C4O)[C@H]31 (stereo not given in full) |  |  | 2.4 | 2.2 | 
Cc1cc(=O)cc2c3c1C[C@@H]1[C@H]4CC(C)[C@@](CC2)(C(=O)O4)[C@]31O (stereo not given in full) |  |  |  |  | inhibition (A549 [3]): Active; inhibition (HL-60 [4]): inactive
Cc1cc(=O)cc2c3c1[C@@H]1OC4C(C)[C@@]5(C[C@H]2O)C(=O)O[C@H]4[C@]1(O)[C@@H]35 (stereo not given in full) |  |  | 11.5 | 17.2 | 
COc1cccc2c1C(=O)c1c(O)c3c(c(O)c1C2=O)C[C@@](O)(C(=O)CO)C[C@@H]3O[C@H]1C[C@H](N)[C@H](O)[C@H](C)O1 [DOXORUBICIN HYDROCHLORIDE] |  |  | 0.44 | 0.075 | 
Cc1cc(=O)cc2c3c1C[C@@H]1[C@@H]4OC(=O)[C@](C[C@H]2O)(C(C)C4O)[C@H]31 (stereo not given in full) |  |  | 25.4 | 38.4 | 
Cc1cc(=O)cc2c3c1[C@@H](O)[C@H]1[C@@H]3[C@]3(CC2)C(=O)O[C@@H]1CC3C (stereo not given in full) |  |  | 10.3 | > 50 | 
CC1C(O)[C@H]2OC(=O)[C@]13CC[C@@H]1C[C@@H](O)C[C@H](C)C4=C1[C@]3(O)[C@@H]2C4=O (stereo not given in full) | < 50 | < 50 |  |  | 
CC1C[C@H]2OC(=O)[C@]13CC[C@@H]1CC(=O)C[C@H](C)C4=C1[C@]3(O)[C@@H]2C4=O (stereo not given in full) | < 50 | < 50 |  |  | 
Cc1cc(=O)cc2c3c1C[C@H]1[C@@H]3[C@]3(C[C@H]2O)C(=O)O[C@@H]1CC3C (stereo not given in full) |  |  | 22 | > 50 | 
Cc1cc(=O)cc2c3c1[C@H](O)[C@H]1[C@@H]3[C@]3(CC2)C(=O)O[C@@H]1CC3C (stereo not given in full) |  |  | 2.4 | 3.5 | 
CC1C(O)[C@H]2OC(=O)[C@]13CC[C@]14C[C@@H](O)[C@H](O1)[C@@](C)(O)C1=C4[C@@H]3[C@@H]2C1 (stereo not given in full) | < 50 | < 50 |  |  | 
Cc1cc(=O)cc2c3c1C[C@]1(O)[C@H]4CC(C)[C@@](CC2)(C(=O)O4)[C@]31O (stereo not given in full) |  |  | 4.5 | 6.8 | 
CC1C[C@H]2OC(=O)[C@]13CC[C@@H]1CC(=O)C[C@H](C)C4=C1[C@@H]3[C@@H]2C4=O (stereo not given in full) | < 50 | < 50 |  |  | 
Cc1cc(=O)cc2c3c1C[C@H]1[C@@H]3[C@]3(C=C2)C(=O)O[C@@H]1CC3C (stereo not given in full) |  |  | 1 | 9.8 | 
Cc1cc(=O)cc2c3c1[C@@H](O)[C@@H]1[C@H]4CC(C)[C@@](C=C2)(C(=O)O4)[C@]31O (stereo not given in full) |  |  |  |  | inhibition (A549 [3]): inactive; inhibition (HL-60 [4]): inactive
